The values that follow are results of earlier work, collected in patent US8568753B2, “Delivery system” (Starpharma Pty Limited, priority 2005, dated 2013).

The data set relates to herpes simplex virus type 2 (HSV-2), Strain G. As to conditions: previous studies.

Turning to nonoxynol-9, the “relative susceptibility to HSV-2 infection vs control animals” value is given as 29.7 times. Also, the “animals infected with HSV-2” value (low-dose inoculum) was 29 out of 42.
